Source: paper PMC6272576, “PLS-Prediction and Confirmation of Hydrojuglone Glucoside as the Antitrypanosomal Constituent of Juglans Spp” (Molecules, 2015)
Read-outs that look alike come from different tables or passages of the source.

Assays:
Format in all cases: cell-based
[1] = system: Trypanosoma brucei rhodesiense strain STIB 900 (bloodstream trypomastigotes); experiment: microbe, parasite or virus in culture; details: for IC50: read-out: IC50 TB
[2] = system: Trypanosoma cruzi strain Tulahuen C2C4 (intracellular amastigotes in L6 cells); experiment: in vitro growth inhibition of T. cruzi; details: for SI TC: ratio of cytotoxic (L6) over antiparasitic IC50
[3] = system: Leishmania donovani strain MHOM/ET/67/L82 (axenic amastigotes); experiment: in vitro growth inhibition of L. donovani; details: for IC50: read-out: IC50 LD
[4] = system: L6 rat skeletal myoblasts; experiment: cytotoxicity against mammalian cells; details: read-out: IC50 L6
[5] = Trypanosoma brucei, pure compound
[6] = ratio of cytotoxic (L6) over antiparasitic IC50
[7] = Trypanosoma cruzi, TULAHUEN, L6, pure compound, read-out: IC50 TC
[8] = Leishmania donovani, pure compound
[9] = Rattus norvegicus, Myoblast, cytotoxicity, pure compound
[10] = pure compound, read-out: IC50 TC

O=C1C=CC(=O)c2ccccc21 [1,4-Naphthoquinone]
IC50 [1, 5]: 0.58 µM | SI TB [1, 6]: 11.1 | IC50 [2, 7]: 9.24 µM | SI TC [2]: 0.7 | IC50 [3, 8]: 2.38 µM | SI LD [3, 6]: 2.7 | IC50 [4, 9]: 6.39 µM

O=C1C(O)=C(C2=C(O)C(=O)c3ccccc3C2=O)C(=O)c2ccccc21 [2,2′-bis-(3-Hydroxy-1,4-naphthoquinone)]
IC50 ([1]; pure compound): 68.8 µM | SI TB [1, 6]: 0.9 | IC50 [2, 10]: 237 µM | SI TC [2]: 0.3 | IC50 ([3]; pure compound): 7.34 µM | SI LD [3, 6]: 8.4 | IC50 ([4]; cytotoxicity, pure compound): 61.6 µM

OC[C@H]1O[C@@H](Oc2ccc(O)cc2)[C@H](O)[C@@H](O)[C@@H]1O [Arbutin (1,4-benzoquinone glucoside), Arbutin]
IC50 [1, 5]: 236 µM | SI TB [1, 6]: >1.5 | IC50 [2, 7]: 244 µM | SI TC [2]: >1.5 | IC50 [3, 8]: > 367 µM | IC50 [4, 9]: > 367 µM

O=C(Cn1ccnc1[N+](=O)[O-])NCc1ccccc1 [Benznidazole]
IC50 [2, 7]: 2.33 µM

OC[C@H]1O[C@@H](Oc2ccc(O)c3cccc(O)c23)[C@H](O)[C@@H](O)[C@@H]1O [Compound 1, 4-O-β-D-Glucopyranosyl-1,4,5-trihydroxynaphthalene]
SI TB [1]: 20.0 | IC50 [1, 5]: 6.1 µM | IC50 ([1]; Trypanosoma brucei): 6.12 µM | IC50 [2, 7]: 169 µM | SI TC [2]: 0.7 | IC50 [3, 8]: 16.7 µM | IC50 ([3]; pure compound, listed as Hydrojuglone glucoside (1)): 16.6 µM | SI LD [3, 6]: 7.3 | SI LD ([3]; ratio of cytotoxic (L6) over antiparasitic IC50, listed as Hydrojuglone glucoside (1)): 7.4 | IC50 [4, 9]: 122 µM | IC50 ([4]; cytotoxicity, pure compound, listed as Hydrojuglone glucoside (1)): 122 µM

O=C1C=CC(=O)c2c(O)cccc21 [Juglone]
SI TB [1]: 13.0 | IC50 ([1]; Trypanosoma brucei): 1.62 µM | IC50 [2, 7]: > 100 µM | SI LD [3]: 10.4 | IC50 ([3]; Leishmania donovani): 2.02 µM | IC50 [4, 9]: 21 µM

CC(C)=CCC1=C(O)C(=O)c2ccccc2C1=O [Lapachol]
IC50 [1, 5]: 16.4 µM | SI TB [1, 6]: 1.6 | IC50 [2, 7]: 17.6 µM | SI TC [2]: 1.5 | IC50 [3, 8]: 3.33 µM | SI LD [3, 6]: 8.0 | IC50 [4, 9]: 26.6 µM

O=C1C=C(O)C(=O)c2ccccc21 [Lawson]
IC50 ([1]; pure compound): 101 µM | SI TB [1, 6]: 0.2 | IC50 [2, 10]: 37.4 µM | SI TC [2]: 0.6 | IC50 ([3]; pure compound): 1.99 µM | SI LD [3, 6]: 10.3 | IC50 ([4]; cytotoxicity, pure compound): 20.6 µM

Nc1nc(N)nc(Nc2ccc([As]3SCC(CO)S3)cc2)n1 (stereo not drawn) [Melarsoprol]
IC50 [1, 5]: 0.005 µM

CCCCCCCCCCCCCCCCOP(=O)([O-])OCC[N+](C)(C)C [Miltefosine]
IC50 [3, 8]: 0.18 µM

CC1=CC(=O)c2c(O)cccc2C1=O [Plumbagin]
IC50 [1, 5]: 0.49 µM | SI TB [1, 6]: 5.9 | IC50 [2, 7]: 3.59 µM | SI TC [2]: 0.8 | IC50 [3, 8]: 0.88 µM | SI LD [3, 6]: 3.3 | IC50 [4, 9]: 2.87 µM

COc1cc([C@@H]2c3cc4c(cc3[C@H](O)[C@H]3COC(=O)[C@H]23)OCO4)cc(OC)c1OC [Podophyllotoxin]
IC50 [4, 9]: 0.014 µM

CC(C)=CC[C@@H](O)C1=CC(=O)c2c(O)ccc(O)c2C1=O [Shikonin]
IC50 [1, 5]: 0.03 µM | SI TB [1, 6]: 2.1 | IC50 ([2]; Trypanosoma cruzi, TULAHUEN, L6, read-out: IC50 TC): 0.27 µM | SI TC [2]: 0.2 | IC50 ([3]; Leishmania donovani): 0.12 µM | SI LD [3, 6]: 0.5 | IC50 ([4]; Rattus norvegicus, Myoblast): 0.06 µM
